Results published in US20110212100A1, “METHODS FOR MODULATING DEVELOPMENT AND EXPANSION OF IL-17 EXPRESSING CELLS” (priority 2007, published 2011).

Columns and labels:
[1] = test system: TGFβ-induced Smad phosphorylation; assay: TGFβ signaling in T and B cells (Smad phosphorylation, lymphocyte responses to TGFβ); format: cell-based, mouse; conditions: HF 2.5-40 nM or 10 nM; SB-431542 10 μM
Description: T cells were then activated in the presence or absence of 3 ng/ml. TGFβ. Whole cell extracts were prepared after 1 hour of stimulation and western blot analyses were performed using the indicated antibodies.
Western blotting: Whole cell lysates were generated from T cells activated for the indicated times. For STAT3 and Smad2/3 western blots cells were harvested, washed in PBS and lysed in 50 mM Tris, pH 7.4, 0.1% SDS, 1% Triton-X100, 140 mM NaCl, 1 mM EDTA, 1 mM EGTA supplemented with protease inhibitors tablets (Roche-Germany), 1 mM NaF and 1 mM Na3VO4. For eIF2α and ATF4 western blots, cells were harvested as above and lysed in 50 mM Tris, pH 7.4, 2% SDS, 20% glycerol and 2 mM EDTA supplemented with protease and phosphatase inhibitors as above. All lysates were cleared via centrifugation and 15-30 μg of protein was resolved by SDS-PAGE. Protein was transferred to nitrocellulose membranes, blocked and blotted using specific antibodies. Antibodies used for western blot analysis were anti-phospho-Smad2, anti-STAT3 (pY705), anti-STAT3, anti-eIF2α^pS51, anti-eIF2α, anti-GCN2^pT898, anti-GCN2 (all from cell signaling technology, Danvers, Mass.). Anti-ATF4/CREB2 and anti-β-actin were purchased from Santa Cruz biotechnology (Santa Cruz, Calif.). […]

[2] = test system: amino acid response (AAR) pathway: eIF2α, ATF4; assay: eIF2α phosphorylation and ATF4 protein levels in T cells (immunoblot); format: cell-based, mouse
Description: Whole cell lysates were prepared 4 hours-post TCR activation and immunoblotting was performed with the indicated antibodies. ATF4 protein is indicated by arrowhead. NS-non-specific band.
FIG. 12E is an illustration depicting immunoblot analysis of purified CD4^+ CD25^− T cells activated through the TCR for the indicated times without exogenous cytokines in the presence of either 10 nM MAZ1310 or 10 nM HF as indicated. Whole cells lysates were prepared during the timecourse and immunoblotting was performed.
Western blotting: Whole cell lysates were generated from T cells activated for the indicated times. For STAT3 and Smad2/3 western blots cells were harvested, washed in PBS and lysed in 50 mM Tris, pH 7.4, 0.1% SDS, 1% Triton-X100, 140 mM NaCl, 1 mM EDTA, 1 mM EGTA supplemented with protease inhibitors tablets (Roche-Germany), 1 mM NaF and 1 mM Na3VO4. For eIF2α and ATF4 western blots, cells were harvested as above and lysed in 50 mM Tris, pH 7.4, 2% SDS, 20% glycerol and 2 mM EDTA supplemented with protease and phosphatase inhibitors as above. All lysates were cleared via centrifugation and 15-30 μg of protein was resolved by SDS-PAGE. Protein was transferred to nitrocellulose membranes, blocked and blotted using specific antibodies. Antibodies used for western blot analysis were anti-phospho-Smad2, anti-STAT3 (pY705), anti-STAT3, anti-eIF2α^pS51, anti-eIF2α, anti-GCN2^pT898, anti-GCN2 (all from cell signaling technology, Danvers, Mass.). Anti-ATF4/CREB2 and anti-β-actin were purchased from Santa Cruz biotechnology (Santa Cruz, Calif.). HRP-conjugated secondary antibodies were all purchased from Sigma, with the exception of HRP-conjugated anti-armenian hamster antibody (Jackson Immunoresearch—West Grove, Pa.).
To address directly whether HF activates the AAR pathway, eIF2a phosphorylation and ATF4 protein levels in HF-treated T cells were examined. HF induced detectable eIF2α phosphorylation at 2.5 nM, and this effect plateaued at 5-10 nM HF (FIG. 12D). […] AAR activation was a general consequence of HF treatment: HF induced eIF2α phosphorylation not only in T cells activated in Th17-priming conditions, but also in resting naïve T cells and T cells activated in ThN, Th1, Th2 and iTreg polarizing conditions (FIG. 12F). […] (Rathmell, J. C., Elstrom, R. L., Cinalli, R. M. & Thompson, C. B. Activated Akt promotes increased resting T cell size, CD28-independent T cell growth, and development of autoimmunity and lymphoma. Eur J Immunol 33, 2223-32 (2003)). Thus, the rapid activation of the AAR pathway by HF underlies both its selective inhibition of Th17 differentiation and its effects on fibroblasts. (Pines, M. & Nagler, A. Halofuginone: a novel antifibrotic therapy. Gen Pharmacol 30, 445-50 (1998)).

[3] = test system: TSK mouse; conditions: 1 μg HF/mouse IP daily (McGaha et al.); cited from earlier work

Structure (SMILES): O=C(CC1NCCCC1O)Cn1cnc2cc(Br)c(Cl)cc2c1=O (racemic) [HF, 7-bromo-6-chloro-3-[3-(3-hydroxy-2-piperidinyl)-2-oxopropyl]-4(3H)-quinazolinone]
- effect on TGFβ-induced Smad phosphorylation and other lymphocyte responses to TGFβ, in words [1]: inhibited neither TGFβ-induced Smad phosphorylation
- time at which eIF2α phosphorylation reached maximum levels ([2]; 10 nM HF): ≤ 2 h
- time until which ATF4 protein continued to accumulate ([2]; 10 nM HF): 4 h
- concentration at which eIF2α phosphorylation plateaued ([2]; 4 hours post TCR activation): 5 to 10 nM
- concentration giving highest ATF4 expression levels ([2]; 4 hours post TCR activation): 5 to 10 nM
- concentration inducing detectable eIF2α phosphorylation ([2]; 4 hours post TCR activation): 2.5 nM
- higher concentrations at which ATF4 expression levels were reduced ([2]; 4 hours post TCR activation): 20 to 40 nM
- skin thickness in TSK model, in words [3]: reduced skin thickness of a TSK mouse to that of a normal mouse
- toxic effects in TSK model, in words [3]: no toxic effects
